Peptide text beside a SMILES is read from it. * marks the point of attachment. Cbz = O=C(OCc1ccccc1)*; CH2F = FC*
Experiments:
caspase 3 [1] = biological target: T1, caspase 3 (Homo sapiens, UniProt P42574); assay: Screening method of caspase 3 inhibitor, in the presence of zinc ion (substrate solution containing 3 mM ZnSO4); format: biochemical; details: for ratio (enzyme activity (+Zn)/enzyme activity (-Zn)): test compound 100 µM, 25 ng/100 µL human caspase 3, reaction time 15 minutes; for IC50: in the presence of zinc ion
T1 construct: the N-terminal region encoding a protein with a molecular weight of about 17 kDa (p17); C-terminal region encoding a protein with a molecular weight of about 12 kDa (p12); made in house; host or cells: Escherichia coli BL21 (DE3) pLysS, plasmid pET3a
T1 sequence (P42574 29-175 limits assumed): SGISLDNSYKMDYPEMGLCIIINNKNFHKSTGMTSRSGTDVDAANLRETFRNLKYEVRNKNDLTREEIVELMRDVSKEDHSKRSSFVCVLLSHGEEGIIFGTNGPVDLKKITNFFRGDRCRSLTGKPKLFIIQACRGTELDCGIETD
T1 sequence (P42574 176-277 limits assumed): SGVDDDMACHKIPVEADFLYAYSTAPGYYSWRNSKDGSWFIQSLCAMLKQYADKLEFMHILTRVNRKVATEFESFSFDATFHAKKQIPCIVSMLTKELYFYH
Experimental: (§1) From human brain cDNA, the N-terminal region encoding a protein with a molecular weight of about 17 kDa (p17) and C-terminal region encoding a protein with a molecular weight of about 12 kDa (p12) were amplified by PCR, and then subcloned into an Escherichia coli expression plasmid (pET3a). Using these plasmids, a host bacterium for expressing proteins (BL21 (DE3) pLysS) was transformed. Then, the transformed bacterium was cultured in M9 medium and an active caspase 3 was prepared. Firstly, fungus body recovered from M9 medium was broken by sonication and an inclusion body was recovered by centrifugation. The inclusion body was solubilized under denatured conditions using 3M guanidine solution, and after mixing with p17 polypeptide and p12 polypeptide, diluted with a dialysis solution. The whole was left at room temperature for 1 hour at this situation, and after regeneration, concentrated. After the sample was dialyzed to exchange the buffer solution, insoluble proteins were removed by ultracentrifugation (100,000 X G, 30 minutes). Upon quantitative protein determination, about 30 mg of a protein was recovered.
Solution A comprising composition of 50 mM HEPES, pH 7.5, 10% (w/v) saccharose, and 0.1% (w/v) 3-[(3-cholamidopropyl)dimethylammonio]-1-propane sulfonate (CHAPS) was used as the base of a liquid for enzymatic reaction with adding a test compound, if necessary. […] In a control experiment, caspase 3 mixed with DMSO instead of the test compound was used. Then, 100 µL of 50 µM Ac-Asp-Glu-Val-Asp-MCA (Solution A, Peptide Kenkyusyo, 3171-v) as a substrate solution were added thereto to start reaction. Time course of the decomposition of the substrate were measured on a fluorescent photometer (Corona Denki, MTP-32, excitation wavelength/360 nm, emission waverangeth/450 nm or SLT, fluostar, excitation wavelength/380 nm, emission wavelength/460 nm) and an enzyme activity of the test compound-added group relative to the control was calculated.
(§2) The effects of the test compound at various concentrations on the enzyme activity were measured in a similar manner to the case in the absence of zinc ion as described in the section 1). However, a substrate solution containing 3 mM ZnSO4 was used.
The enzyme activities calculated in the absence of zinc ion (-Zn) and in the presence of zinc ion (+Zn) were compared (enzyme activity (+Zn)/enzyme activity (-Zn)).

caspase 3 [2] = biological target: T1, caspase 3; assay: Examination of caspase 3 inhibitory mode in the presence of zinc (Lineweaver-Burk plots); format: biochemical
Experimental: (§3) Solution A comprising composition of 50 mM HEPES, pH 7.5, 10% (w/v) saccharose, and 0.1% (w/v) 3-[(3-cholamidopropyl)dimethylammonio]-1-propane sulfonate (CHAPS) was used as the base of a liquid for enzymatic reaction with adding a test compound, if necessary. A 10 ng/100 µL human caspase 3 solution (Solution B: Solution A + 10 mM dithiothreitol (DTT)) and a test compound at different concentrations were mixed and the mixture was left at room temperature for 30 minutes. In a control experiment, caspase 3 mixed with DMSO instead of the test compound was used. Then, 100 µL of 50 µM Ac-Asp-Glu-Val-Asp-MCA (Solution A, Peptide Kenkyusyo, 3171-v) as a substrate solution were added thereto to start reaction. Time course of the decomposition of the substrate were measured on a fluorescent photometer (Corona Denki, MTP-32, excitation wavelength/360 nm, emission waverangeth/450 nm or SLT, fluostar, excitation wavelength/380 nm, emission wavelength/460 nm) and an enzyme activity of the test compound-added group relative to the control was calculated.
as §2
The caspase 3 inhibitory mode of Compound A in the presence of zinc was examined according to the methods 1) and 2) of Example 3. […] The inhibitory mode was analyzed with Lineweaver-Burk plots (double reciprocal plots).
The caspase 3 inhibitory mode of Compound B in the presence of zinc was examined according to the methods 1) and 2) of Example 3. […] The inhibitory mode was analyzed with Lineweaver-Burk plots (double reciprocal plots).
The caspase 3 inhibitory mode of Compound C in the presence of zinc was examined according to the methods 1) and 2) of Example 3. […] The inhibitory mode was analyzed with Lineweaver-Burk plots (double reciprocal plots).

caspase 3 [3] = biological target: T1, caspase 3; assay: Screening method of caspase 3 inhibitor, in the absence of zinc ion (fluorogenic substrate Ac-Asp-Glu-Val-Asp-MCA); format: biochemical; details: for inhibition at 100 µM: at 100 µM in the absence of zinc ion, read-out: enzyme activity inhibited
Experimental: as §1
as §3, with “Then, 100 µL of 50 µM Ac-Asp-Glu-Val-Asp-MCA (Solution A, Peptide Kenkyusyo, 3171-v) as a substrate solution were added thereto to start reaction.” left out

rat hippocampal neuron = assay: Apoptosis inhibitory action: suppression of DNA fragmentation induced by Etoposide; format: cell-based
Experimental: Cultured rat hippocampal neuron was prepared according to a usual method (Neurochem. Int., 31(5), 715-722, 1997). Brain was taken out of a fetus of rat at day 19 of gestation, and hippocampus was picked up under a stereomicroscope. The hippocampus was treated with an enzyme, dispersed by pipetting several times, and cell clusters were removed through a filter to prepare a cell suspension. The cell was cultured at a concentration of 1.2 x 10^5 cells/cm^2 in a 12-well plate coated with polylysine. A "culture medium for neuron" manufactured by Sumitomo Bakelite Co., Ltd. was used as the culture liquid. The neuronal cell at 13 to 16 days of culture was used. Etoposide was employed for inducing apoptosis of the neuronal cell. The induction of DNA fragments was evaluated as a marker of apoptosis.
Cell stimulation was carried out by replacing the cell culture medium with a serum-free medium containing 3 µg/mL Etoposide. After 6 hours from the start of the stimulation, the cell was recovered. TaKaRa ApopLadder Ex kit was used for the extraction of fragmented DNA. The fragmented DNA were subjected to electrophoresis followed by staining with CYBR Green, and the fluorescence intensity of the DNA was measured by means of a scanner manufactured by Molecular Dynamics Co.

`c1ccc2[nH]c(Cc3nc4ccccc4[nH]3)nc2c1` [Compound A, bis(1H-benzimidazol-2-yl)methane] was tested, and the “ratio (enzyme activity (+Zn)/enzyme activity (-Zn))” value (caspase 3 [1]) was 0.37 and the “caspase 3 inhibitory mode” value (caspase 3 [2]) was “substrate-competitive and reversible”.
With `ON=C(c1nc2ccccc2[nH]1)c1nc2ccccc2[nH]1` [Compound B, bis(1H-benzimidazol-2-yl)ketone oxime] the “ratio (enzyme activity (+Zn)/enzyme activity (-Zn))” value (caspase 3 [1]) was 0.44 and the “caspase 3 inhibitory mode” value (caspase 3 [2]) was “substrate-competitive and reversible”.
For `CCCN1C(=O)C2(Oc3c(c(=O)n(CCC)c4ncccc34)S2)C(=O)c2cccnc21` (centres unmarked) [Compound C, 1,5'-dipropylspiro[1,8-naphthyridine-3(2H),2'-[1,3]oxathiolo[4,5-c][1,8]naphthyridine]-2,4,4' (1H,5'H)-trione], the inhibition at 100 µM (caspase 3 [3]) was 17%, the IC50 (caspase 3 [1]) was 1200 nM and the “caspase 3 inhibitory mode” value (caspase 3 [2]) was “substrate-competitive and reversible”. It also gave an IC50 (rat hippocampal neuron; Rattus norvegicus, Hippocampal neuron, 3 µg/mL Etoposide, 6 hours, compound at 10, 25, 50 µM, no zinc added to medium) of 17000 nM.
`CCCN1C(=O)C2(Oc3c(c(=O)n(CCC)c4ccccc34)S2)C(=O)c2ccccc21` (centres unmarked) [Compound D] was tested, and the inhibition at 100 µM (caspase 3 [3]) was 13%, the IC50 (caspase 3 [1]) was 350 nM and the apoptosis inhibitory action (rat hippocampal neuron; at a concentration of 33.3 µM, added together with Etoposide) was “strong apoptosis inhibitory action”.
In the case of `COC(=O)C[C@H](NC(=O)[C@H](C)NC(=O)[C@@H](NC(=O)OCc1ccccc1)C(C)C)C(=O)CF` [z-VAD.FMK, z-Val-Ala-Asp(OMe)-CH2F, reference compound] (Cbz-Val-Ala-Asp(OMe)-CH2F), the IC50 (caspase 3 [3]; in the absence of zinc ion, reaction time 30 minutes) is reported as 510 nM, the “effect of zinc ion on the caspase 3 inhibitory activity” value (caspase 3 [1]; comparison of presence and absence of zinc ion) is reported as “no remarkable enhancing effect” and the IC50 (caspase 3 [1]; reaction time 30 minutes) is reported as 550 nM.

From patent publication EP1172443A1, “METHOD FOR SCREENING CYSTEINE PROTEASE INHIBITOR” (YAMANOUCHI PHARMACEUTICAL CO. LTD., priority 1999, dated 2000)
